Measured values: patent publication US11318140B2, “Use of TRPV4 antagonists to ameliorate hydrocephalus and related materials and methods” (Indiana University Research and Technology Corporation, priority 2012, dated 2022)
“Also recorded” adds a separate entry of the source.

What was measured:
Type in all cases: in vivo, rat
[1] = tested on: Wpk/Wpk hydrocephalic rats; experiment: Cortical thickness from coronal sections of Wpk/Wpk hydrocephalic rats; settings: 0.03 mg/kg body weight, day 8-17; measured at day 17; p<0.0001
From the text: (§1) Wistar Wpk/Wpk rats are an orthologous model of human type 3 Meckel Syndrome. Meckel Syndrome is a cilliopathology with both renal cystic and brain pathology. The brain pathology is severe hydrocephalus with hypoplasia of the corpus callosum.
Cortical thickness measured from coronal sections of Wpk/Wpk hydrocephalic rats at day 17. […] This finding is in agreement with the decreased degree of hydrocephalus in the antagonist treated animals and, therefore, have a decreased loss in cerebral cortex.

[2] = tested on: Wistar Wpk/Wpk rats; experiment: Renal pathology (kidney weight) in Wpk/Wpk rats; settings: day 8 through 17
Procedure: as §1
(§2) The inventors treated Wpk/Wpk affected as well as noncystic littermates with either TRPV4 agonist (GSK1016797, 0.003 mg/kg body weight) or antagonist (HC067047, 0.03 mg/kg) from day 8 through 17 and evaluated the cranial enlargement and cerebral manifestations. Both drugs were dissolved in DMSO prior to dilution with normal saline prior to injection (i.p.).
(§3) Wpk/Wpk affected as well as noncystic littermates were treated with TRPV4 antagonist RN-1734 from day 8 through 17 and evaluated the kidney weight and cerebral manifestations (bitemporal head diameter and vertical head dimensions/cranial height). Both drugs were dissolved in DMSO prior to dilution with normal saline prior to injection (i.p.).

[3] = tested on: Wistar Wpk/Wpk rats; experiment: Hydrocephalic cranial/head enlargement in Wpk/Wpk rats; settings: day 8 through 17
Procedure: as §1, §2, §3

[4] = Example 3: i.p., dose not given

SMILES	cortical thickness [1]	renal pathology ([2]; Example 2: agonist 0.003 mg/kg, antagonist 0.03 mg/kg, i.p.)	activity and alertness of treated rats ([3]; 0.03 mg/kg i.p.)	head dimensions, treated affected rats versus normal littermates ([3]; 0.03 mg/kg i.p.)	hydrocephalic enlargement of the cranium/brain (head measurements) ([3]; 0.03 mg/kg i.p., affected Wpk/Wpk rats)	renal pathology (kidney weight) [2, 4]	activity and alertness of treated rats [3, 4]	head dimensions, treated affected rats versus normal littermates [3, 4]	hydrocephalic enlargement of the cranium/brain (bitemporal head diameter, vertical head dimension) [3, 4]
Cc1c(C(=O)Nc2cccc(C(F)(F)F)c2)cc(-c2ccccc2)n1CCCN1CCOCC1 [HC067047]	increased cortical thickness	did not affect the renal pathology	very active and alert like their nonaffected littermates	no difference in head dimensions	almost totally ameliorate; also recorded: significantly less hydrocephalic head measurements	–	–	–	–
CC(C)NCCN(C(C)C)S(=O)(=O)c1ccc(Cl)cc1Cl [RN-1734]	–	–	–	–	–	did not affect the renal pathology	very active and alert like their nonaffected littermates	no difference in head dimensions	almost totally ameliorate
